Consider 2 molecules from BindingDB's records for doi:10.7270/Q2MS3R62 (Burnham Center For Chemical Genomics, 2007).

For this assay, the target named is Heat shock cognate 71 kDa protein (Homo sapiens, UniProt P11142).
Chain of Heat shock cognate 71 kDa protein (P11142 whole entry): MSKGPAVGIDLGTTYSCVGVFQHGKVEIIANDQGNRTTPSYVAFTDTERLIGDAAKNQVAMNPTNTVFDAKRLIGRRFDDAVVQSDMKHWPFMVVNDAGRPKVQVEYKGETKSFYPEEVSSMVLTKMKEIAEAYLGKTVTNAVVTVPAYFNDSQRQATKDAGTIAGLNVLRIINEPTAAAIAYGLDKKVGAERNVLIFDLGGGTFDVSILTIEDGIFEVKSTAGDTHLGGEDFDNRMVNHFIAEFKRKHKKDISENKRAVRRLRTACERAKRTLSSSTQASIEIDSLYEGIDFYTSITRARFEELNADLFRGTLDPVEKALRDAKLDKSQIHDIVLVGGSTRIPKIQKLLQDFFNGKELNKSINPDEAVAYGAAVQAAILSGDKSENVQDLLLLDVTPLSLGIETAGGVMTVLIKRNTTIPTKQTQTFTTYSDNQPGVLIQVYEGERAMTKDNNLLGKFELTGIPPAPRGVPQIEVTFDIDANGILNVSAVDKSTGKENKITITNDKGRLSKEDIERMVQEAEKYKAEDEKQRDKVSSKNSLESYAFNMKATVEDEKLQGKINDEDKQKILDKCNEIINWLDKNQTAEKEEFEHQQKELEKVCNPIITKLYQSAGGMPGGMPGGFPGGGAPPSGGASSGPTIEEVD

One may read the IC50 as the point on the concentration scale where inhibition reaches its midpoint. A higher IC50 goes with weaker potency in that assay. `CC(=O)N1CCC2(CC1)c1c(n[nH]c1C)OC(=N)C2C#N` (configuration not stated) [6-azanyl-1'-ethanoyl-3-methyl-spiro[2H-pyrano[2,3-c]pyrazole-4,4'-piperidine]-5-carbonitrile]: inhibition was half-maximal at 999 µM (IC50).
As to `C=c1[nH]n(-c2cccc(C(=O)O)c2)c(=O)c1=CC=Cc1ccco1` [SMR000113614], it took 999 µM to reach half-maximal inhibition (IC50).
